Source: patent US8642801B2 (BHI Limited Partnership, priority 2003, dated 2014)
Counter-ions that a name gives are not always drawn.

biological target: T1, IAPP (Homo sapiens, UniProt P10997); test: MS (electrospray mass spectrometry) binding assay for IAPP; conditions: Table 3B; 30 μM Aβ peptide, 150 μM compound (so in the source)
T1 construct: which is a 37 amino acid peptide, derived from a larger precursor peptide, called pro-IAPP
T1 sequence (P10997 34-70 limits assumed): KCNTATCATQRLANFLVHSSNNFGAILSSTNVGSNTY

Compound | MS binding IAPP
CCNCCC(C)S(=O)(=O)O (centres unmarked) [JQ, 4-(ethylamino)-2-butanesulfonic acid, sodium salt] | +++ (60-100% binding=(+++))
CC(C)(C)NCC(O)CS(=O)(=O)O (centres unmarked) [JV, 3-(tert-butylamino)-2-hydroxy-1-propanesulfonic acid] | ++ (40-59% binding=(++))
O=S(=O)(O)CCCCNC1CCCCC1 [LK, 4-(cyclohexylamino)-1-butanesulfonic acid] | ++ (40-59% binding=(++))
O=S(=O)(O)CC(O)CNC1C2CC3CC(C2)CC1C3 (centres unmarked) [KJ, 3-(2-adamantylamino)-2-hydroxy-1-propanesulfonic acid] | +++ (60-100% binding=(+++))
O=S(=O)([O-])CC(O)CNC12CC3CC(CC(C3)C1)C2.[Na+] (centres unmarked) [KB, 4-(adamantan-1-ylamino)-2-hydroxy-1-propanesulfonic acid] | +++ (60-100% binding=(+++))
CC(CCNC1CCCCC1)S(=O)(=O)O (centres unmarked) [KM, 4-(cyclohexylamino)-2-butanesulfonic acid] | +++ (60-100% binding=(+++))
CC(C)CCNCCC(C)S(=O)(=O)O (centres unmarked) [KH, 4-[(3-methylbutyl)amino]-2-butanesulfonic acid] | ++ (40-59% binding=(++))
O=S(=O)(O)CCCCNC1C2CC3CC(C2)CC1C3 (centres unmarked) [LN, 4-(2-adamantyl)amino-1-butanesulfonic acid] | +++ (60-100% binding=(+++))

The remaining lines, values ahead:

MS binding IAPP | Compound
+++ (60-100% binding=(+++)) | CC(CCNCc1ccccc1)S(=O)(=O)[O-].[Na+] (centres unmarked) [JP, 4-(benzylamino)-2-butanesulfonic acid, sodium salt]
+++ (60-100% binding=(+++)) | CC(C)(C)NCCS(=O)(=O)O [KS]
++ (40-59% binding=(++)) | N[C@@H](Cc1ccccc1)C(=O)NCCS(=O)(=O)O [KT]
++ (40-59% binding=(++)) | N[C@@H](Cc1ccccc1)C(=O)NCCCS(=O)(=O)O [KN]

same assay, conditions: Table 3D; 40 μM Aβ peptide, 400 μM compound (so in the source)

Compound | MS binding IAPP
O=[N+]([O-])c1ccc2[nH]c3c(c2c1)CCN(CCCS(=O)(=O)O)C3 [IT] | + (20-39% binding=(+))
O=S(=O)(O)CCCN1CCc2c([nH]c3ccc(Br)cc23)C1 [IR] | + (20-39% binding=(+))
O=S(=O)(O)CCCCN1CCc2c([nH]c3ccc(Br)cc23)C1 [KX] | + (20-39% binding=(+))
O=C(O)c1ccc2[nH]c3c(c2c1)CCN(CCCS(=O)(=O)O)C3 [IU] | − (<20%=(−))
O=C(O)c1ccc2[nH]c3c(c2c1)CCN(CCCCS(=O)(=O)O)C3 [LA] | − (<20%=(−))
O=[N+]([O-])c1ccc2[nH]c3c(c2c1)CCN(CCCCS(=O)(=O)O)C3 [KY] | + (20-39% binding=(+))
Nc1ccc2[nH]c3c(c2c1)CCN(CCCCS(=O)(=O)O)C3 [KW] | + (20-39% binding=(+))

Further lines, results first:

MS binding IAPP | Compound
+ (20-39% binding=(+)) | O=S(=O)(O)CCCN1CCc2ccc(Br)cc2C1 [IN]
− (<20%=(−)) | O=S(=O)(O)CCCN/C=C\NCCCS(=O)(=O)O [HX]
+ (20-39% binding=(+)) | O=S(=O)(O)CCCN1CCc2c(Br)cccc2C1 [IK]
− (<20%=(−)) | O=S(=O)(O)CCCn1cc[n+](CCCn2ccnc2)c1 [HW]
− (<20%=(−)) | CC(=O)N(C(C)=O)c1cccc2c[n+](CCCS(=O)(=O)[O-])ccc12 [II]
− (<20%=(−)) | [N-]=[N+]=NCCCS(=O)(=O)O [HN]
+ (20-39% binding=(+)) | O=C(NCCCCS(=O)(=O)O)OCc1ccccc1 [KV]
− (<20%=(−)) | C[N+](C)(CCCS(=O)(=O)[O-])CCCS(=O)(=O)O [IF]
− (<20%=(−)) | Nc1ccc2c(c1)CN(CCCS(=O)(=O)O)CC2 [IM]
+ (20-39% binding=(+)) | O=[N+]([O-])c1cccc2c[n+](CCCS(=O)(=O)[O-])ccc12 [IJ]
+++ (75-100% binding=(+++)) | NCCCCCS(=O)(=O)O [LP]
− (<20%=(−)) | O=S(=O)([O-])CCC[n+]1ccn(CCCS(=O)(=O)O)c1 [HP]
− (<20%=(−)) | O=S(=O)(O)CCCn1cc[n+](CCCS(=O)(=O)O)c1 [HS]
+ (20-39% binding=(+)) | Nc1cccc2c1CCN(CCCS(=O)(=O)O)C2 [IH]
− (<20%=(−)) | NCCCCC(NCCCS(=O)(=O)O)C(=O)O (centres unmarked) [HY]
+ (20-39% binding=(+)) | COC(=O)[C@@H](Cc1ccc(I)cc1)NCCCS(=O)(=O)O [IB]
+ (20-39% binding=(+)) | O=[N+]([O-])c1ccc2c(c1)CN(CCCS(=O)(=O)O)CC2 [IL]
− (<20%=(−)) | O=C(O)CNCCCS(=O)(=O)O [HZ]
+ (20-39% binding=(+)) | O=S(=O)(O)CCCN1CCc2c(I)cccc2C1 [IP]

biological target: T2, Aβ40 and Aβ42 peptides in plasma and brain of TgCRND8 mice (Homo sapiens, UniProt P05067); test: Short term treatment in adult transgenic CRND8 mice overexpressing βAPP: Aβ levels in plasma and brain by ELISA; format: in vivo, Mouse; conditions: Brain Homogenate Vehicle Group, Day 14; TgCRND8 mice, 250 mg/kg daily
T2 construct: ELISA using Human Aβ40 and Aβ42 Fluorometric ELISA kits from Biosource; from tissue; host or cells: plasma and brain homogenate of TgCRND8 transgenic mice (hAPP transgene)
Description: Transgenic mice, […]8, expressing the human amyloid precursor protein (hAPP) develop a pathology resembling Alzheimer's disease. In particular, high levels of Aβ40 and Aβ 42 have been documented in the plasma and the brain of these animals at 8-9 weeks of age, followed by early accumulation of amyloid plaques similar to the senile plaques observed in AD patients. These animals also display progressive cognitive deficits that parallel the appearance of degenerative changes. See, […], et al., J. Biol. Chem. 276, 21562-70 (2001). The short term therapeutic effect of 19 compounds of the invention was studied. […] The following abbreviations are used to designate these animals from the 3rd and 4th generation backcross in the present protocol: TgCRND8-2.B6C3F1(N3); TgCRND8-2.B6C3F1(N4). Baseline animals (Group 1) consisted of naive TgCRND8-2. B6C3F1(N3) at 11±1 weeks of age. These mice were used to determine the Aβ levels in the plasma and brain of naive transgenic animals at the initiation of treatment. […] At the end of the treatment periods, plasma and perfused brains were collected for quantification of Aβ levels. […] Plasma samples were immediately frozen and stored at -80° C. pending analysis. The brains were removed, frozen, and stored at -80° C. awaiting analysis. […] Samples were spun at 15000 g for 20 minutes and the supernatants were transferred to fresh tubes. […] The tubes were vortexed for 30 seconds and frozen at -80° C. […] Samples were thawed at room temperature, sonicated at 80° C. for 15 minutes and frozen again. This cycle was repeated 3 times to ensure homogeneity and samples were returned to -80° C. pending analysis. Aβ levels were evaluated in plasma and brain samples by ELISA using Human Aβ40 and Aβ42 Fluorometric ELISA kits from Biosource (Cat. […] In short, samples were thawed at room temperature, sonicated for 5 minutes at 80° C. (sonication for brain homogenates; no sonication for plasma samples) and kept on ice. Aβ peptides were captured using 100 μl of the diluted samples to the plate and incubated without shaking at 4° C. overnight. The samples were aspirated and the wells were rinsed 4 times with wash buffer obtained from the Biosource ELISA kit. The anti-Aβ40 or anti-Aβ42 rabbit polyclonal antiserum (specific for the Aβ40 or Aβ42 peptide) was added (100 μl) and the plate was incubated at room temperature for 2 hours with shaking. The wells were aspirated and washed 4 times before adding 100 μl of the alkaline phosphatase labeled anti-rabbit antibody and incubating at room temperature for 2 hours with shaking. The plates were then rinsed 5 times and the fluorescent substrate (100 μl) was added to the plate. The plate was incubated for 35 minutes at room temperature and the plate was read using a titer plate reader at an excitation wavelength of 460 nm and emission at 560 nm Compounds were scored based on their ability to modulate levels of Aβ peptides in the plasma and the cerebral soluble/insoluble levels in the brain. Levels of Aβ observed in the plasma and brain of treated animals were normalized using values from vehicle-treated (water) or methylcellulose-treated control groups and ranked according to the strength of the pharmacological effect. Increases in the levels of Aβ peptides are indicated using “+” symbols, while decreases in the levels of Aβ peptides are indicated using “-” symbols. The strongest effects are recorded as “+++” or “- - -” while the weakest are shown as “+” or “-”.

Compound | Brain homogenate Aβ40 Change Insoluble | Brain homogenate Aβ42 Change Insoluble
O=S(=O)(O)CCCNCC(O)c1ccccc1 (centres unmarked) [DY] | −− (decreases of 20 to 38% are scored as “− −”) | −− (decreases of 20 to 38% are scored as “− −”)

same assay, conditions: Brain Homogenate Vehicle Group, Day 28; TgCRND8 mice, 250 mg/kg daily

Compound | Brain homogenate Aβ40 Change Insoluble | Brain homogenate Aβ42 Change Insoluble | Brain homogenate Aβ42 Change Soluble
O=S(=O)(O)CCCNCC(O)c1ccccc1 (centres unmarked) [DY] | −−− (decreases of 39% or more are scored as “− − −”) | −− (decreases of 20 to 38% are scored as “− −”) | − (Decreases in the levels of Aβ of 5 to 19% are scored as “−”)

biological target: T1, IAPP; test: MS (electrospray mass spectrometry) binding assay for IAPP; conditions: Table 3C; 20 μM Aβ peptide, 100 μM compound (so in the source)
Description: The ability of a therapeutic compound of the invention to inhibit an interaction between an amyloidogenic protein and a glycoprotein or proteoglycan constituent of a basement membrane can be assessed by an in vitro binding assay, such as that described in U.S. Pat. No. 5,164,295, the contents of which are hereby incorporated by reference. Alternatively, the ability of a compound to bind to an amyloidogenic protein or to inhibit the binding of a basement membrane constituent (e.g., HSPG) to an amyloidogenic protein (e.g., Aβ) can be measured using a mass spectrometry assay where soluble protein, e.g., Aβ, IAPP, β2M is incubated with the compound. A compound which binds to, e.g., Aβ, will induce a change in the mass spectrum of the protein. Exemplary protocols for a mass spectrometry assay employing Aβ and IAPP can be found in the Examples, the results of which are provided in Table 3. The protocol can readily be modified to adjust the sensitivity of the data, e.g., by adjusting the amount of protein and/or compound employed. Thus, e.g., binding might be detected for test compounds noted as not having detectable binding employing less sensitive test protocols.
The test compounds were synthesized and screened by mass spectrometry (“MS”) assays, except for selected compounds which were purchased from a commercial source. The MS assay gives data on the ability of compounds to bind to proteins, in this example, to β-amyloid and IAPP.
In the MS assay for Aβ40, samples were prepared as aqueous solutions (adding 20% ethanol if necessary to solubilize in water), 200 μM of a test compound and 20 μM of solubilized Aβ40, or 400 μM of a test compound and 40 μM of solubilized Aβ40. The pH value of each sample was adjusted to 7.4 (±0.2) by addition of 0.1% aqueous sodium hydroxide. The solutions were then analyzed by electrospray ionization mass spectrometry using a Waters ZQ 4000 mass spectrometer. Samples were introduced by direct infusion at a flow-rate of 25 μL/min within 2 hr. after sample preparation. The source temperature was kept at 70° C. and the cone voltage was 20 V for all the analysis. Data were processed using Masslynx 3.5 software. The MS assay gives data on the ability of compounds to bind to soluble Aβ, whereas the ThT, EM and CD assays give data on inhibition of fibrillogenesis. In Table 3, a blank box means that a value was not determined for that compound in that assay.
The key below describes the codes used in Table 3A to quantify the binding based on the intensity of the absorption.

Compound | MS binding IAPP
O=S(=O)([O-])CCCC[N+]12CCC(CC1)CC2 [LF] | + (20-39% binding=(+))
CC(CCN1CCCCC1)S(=O)(=O)O (centres unmarked) [JS, 4-piperidin-1-yl-2-butanesulfonic acid] | + (20-39% binding=(+))

More lines, now with the values ahead:

MS binding IAPP | Compound
+++ (75-100% binding=(+++)) | O=S(=O)([O-])CC(O)CNCc1ccccc1.[Na+] (centres unmarked) [JY]
+++ (75-100% binding=(+++)) | O=S(=O)(O)CC(O)CNC1CCCc2ccccc21 (centres unmarked) [JZ, 2-hydroxy-3-(1,2,3,4-tetrahydronaphthalen-1-ylamino)propane-1-sulfonic acid]
